From article PMC11356571, “The Comparative Metabolism of a Novel Hepatocellular Carcinoma Therapeutic Agent, 2,3-Diamino-N-(4-(benzo[d]thiazol-2-yl)phenyl)propanamide, in Human and Animal Hepatocytes” (Metabolites, 2024)

Tests used:
Type in all cases: in vitro ADME
[1] = biological target: T1, CYP2E1 (Homo sapiens, UniProt P05181); assay: Incubation with human cDNA-expressed CYP2E1; conditions: CYP2E1, 30 min at 37 °C with NADPH; ETN101 10 μM or M1 1 μM
T1 construct: purchased Corning Life Sciences (Woburn, MA, USA)
Procedure: ETN101 or M1 was incubated with nine human cDNA-expressed CYP enzymes (1A2, 2A6, 2B6, 2C8, 2C9, 2C19, 2D6, 2E1, and 3A4) to identify the CYPs involved in the metabolism of ETN101. Based on the preliminary study, the incubation conditions were determined as follows: Briefly, reaction mixtures of 50 μL containing ETN101 (final concentration: 10 μM) or M1 (final concentration: 1 μM), and CYPs (final amount: 5 pmol for CYP1A2, 2A6, 2C8, 2C9, 2C19, 2D6, and 3A4; 10 pmol for CYP2B6 and 2E1) were prepared in 0.1 M potassium phosphate buffer. The reaction was initiated by adding 50 μL of NADPH- regenerating system; the mixtures were incubated for 0 min or 30 min at 37 °C in triplicate. Reactions were terminated by the addition of 100 μL of ice-cold acetonitrile containing the IS (camptothecin, 200 ng/mL). Samples were centrifuged at 13,000 rpm for 5 min at 4 °C. An aliquot of 2 μL supernatant was injected in LC–MS/MS system.
(§1) For enzyme characterization, an Agilent 6460 triple quadrupole mass spectrometer coupled with a 1260 HPLC system (Agilent Technologies, Santa Clara, CA, USA) and a Kinetex Halo® C18 column (2.7 μm, 2.1 × 50 mm, Advanced Material Technology, Wilmington, DE, USA) were used for chromatographic separation. […] ETN101, M1, and M2 were detected via MRM using ESI in the positive mode. […]

[2] = biological target: T2, CES2 (Homo sapiens, UniProt O00748); assay: Incubation with human recombinant CES2; conditions: CES2, 60 min at 37 °C; ETN101 10 μM or M1 1 μM
T2 construct: purchased Corning Life Sciences (Woburn, MA, USA)
T2 sequence (O00748 27-559): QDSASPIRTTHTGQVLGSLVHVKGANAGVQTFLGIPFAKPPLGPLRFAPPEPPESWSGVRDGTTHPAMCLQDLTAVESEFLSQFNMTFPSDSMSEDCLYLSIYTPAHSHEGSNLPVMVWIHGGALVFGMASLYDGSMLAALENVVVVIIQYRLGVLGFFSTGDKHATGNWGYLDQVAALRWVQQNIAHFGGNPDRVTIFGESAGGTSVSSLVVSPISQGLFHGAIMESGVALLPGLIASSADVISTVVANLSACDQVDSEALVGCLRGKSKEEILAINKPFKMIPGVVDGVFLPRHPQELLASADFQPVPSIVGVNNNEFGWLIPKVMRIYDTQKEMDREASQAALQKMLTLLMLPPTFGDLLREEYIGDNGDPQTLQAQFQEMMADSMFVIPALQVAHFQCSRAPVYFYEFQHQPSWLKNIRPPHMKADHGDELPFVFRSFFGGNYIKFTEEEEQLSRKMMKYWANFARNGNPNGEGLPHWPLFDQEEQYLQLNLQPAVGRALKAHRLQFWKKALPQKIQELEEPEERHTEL
Procedure: To screen for CES enzymes responsible for the hydrolysis of ETN101 or M1, 50 μL of reaction mixtures containing human cDNA-expressed CES enzymes (CES1b, CES1c, and CES2) at the concentration of 1 mg/mL, 10 μM ETN101, or 1 μM M1 in 0.1 M potassium phosphate buffer were incubated at 37 °C for 0 min or 60 min in triplicate. The reactions were quenched by adding 50 μL of ice-cold acetonitrile containing the internal standard (camptothecin, 10 μg/mL). Following centrifugation at 13,000 rpm for 5 min, a 2 μL aliquot of the supernatant was injected into the LC-MS/MS system. The reliability of the analysis was confirmed by incorporating three different levels of quality control samples at the beginning and end of each analytical batch.
as §1, with “separation. The mobile phases comprised 0.1% (v/v) formic acid in water (mobile phase A) and 0.1% formic acid (v/v) in acetonitrile (mobile phase B).” for “separation.”

[3] = tested on: human hepatocytes; assay: Metabolite characterization in human hepatocytes; conditions: human hepatocyte 1 h incubates of ETN101; ND:<1.2E+05 peak area
Procedure: We mixed 60 μL aliquots of 40 μM ETN101 in incubation medium and an equal volume of human, mouse, rat, dog, or monkey hepatocyte suspension in 96-well plates and incubated for 0 or 1 h in a CO2 incubator at 37 °C. The reactions were quenched by adding 120 µL of ice-cold acetonitrile to each well, and the cell suspension was sonicated for 5 min at 4 °C. Subsequently, centrifugation was carried out at 15,000× g for 10 min at 4 °C. Next, the supernatants were evaporated to dryness using a vacuum concentrator, and residues were re-dissolved in 70 μL of 30% acetonitrile. Each sample (5 μL aliquots) was analyzed using LC–HRMS system.
For metabolite characterization, a Vanquish HPLC system (Thermo Fisher Scientific, San José, CA, USA) coupled with a Q-Exactive Orbitrap mass spectrometer (Thermo Fisher Scientific Inc., Waltham, MA, USA) was used at Core Research Support Center for Natural Products and Medical Materials at Yeungnam University. […] The eluent from the column was directly injected into the mass spectrometer using a heated electrospray ionization (HESI) source in positive ionization mode. […] The spray voltage was 3.0 kV and the capillary temperature was 320 °C. Full scan MS^1 with a data-dependent MS^2 acquisition mode was applied to obtain MS^1 scan data ranging from m/z 80 to 900, at a resolution of 70,000, whereas data-dependent MS^2 spectra were acquired for the five most abundant peaks per cycle at a resolution of 35,000. The parallel reaction monitoring (PRM) mode was used to obtain the MS^2 spectra of putative metabolites detected at low peak intensities in the data-dependent MS^2 acquisition mode. Data were collected and interpreted using Thermo Scientific Xcalibur™ Software (Thermo Fisher Scientific).

T1 sequence (P05181 whole entry): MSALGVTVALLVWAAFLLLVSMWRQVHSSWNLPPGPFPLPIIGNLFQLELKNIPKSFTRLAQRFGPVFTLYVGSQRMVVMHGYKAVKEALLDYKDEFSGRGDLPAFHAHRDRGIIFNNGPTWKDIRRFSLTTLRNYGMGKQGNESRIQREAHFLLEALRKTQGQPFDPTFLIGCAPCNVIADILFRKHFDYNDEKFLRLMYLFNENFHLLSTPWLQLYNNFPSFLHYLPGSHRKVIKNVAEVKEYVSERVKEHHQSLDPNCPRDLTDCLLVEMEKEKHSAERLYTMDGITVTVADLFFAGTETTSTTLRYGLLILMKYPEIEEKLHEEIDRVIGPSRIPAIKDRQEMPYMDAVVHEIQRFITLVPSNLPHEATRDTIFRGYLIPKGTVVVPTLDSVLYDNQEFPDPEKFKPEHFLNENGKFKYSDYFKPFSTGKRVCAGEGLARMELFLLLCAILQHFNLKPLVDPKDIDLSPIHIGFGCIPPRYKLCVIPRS

Compound	Percentage remaining [1]	Percentage remaining [2]	Relative peak area (%) [3]
NCC(N)C(=O)Nc1ccc(-c2nc3ccccc3s2)cc1 (stereo not drawn) [ETN101, 2,3-diamino-N-(4-(benzo[d]thiazol-2-yl)phenyl)propanamide]	81.1%	113.4%	76.4%
Nc1ccc(-c2nc3ccccc3s2)cc1 [M1, 2-(4-aminophenyl)benzothiazole]	97.3%	91.7%	21.0%
